Laboratory results as given in the supplement of paper PMC10331698.
± gives the standard deviation of the averaged measurements.

Key:
Test in all cases: level (log10 ratio to DMSO vehicle control); higher = higher biomarker level / cell amount than vehicle control
[1] = compound: OCCC(F)(F)C(F)(F)C(F)(F)C(F)(F)C(F)(F)C(F)(F)C(F)(F)C(F)(F)F [8:2 Fluorotelomer alcohol]; conditions: 6700 nM; in DMSO
Method: (§1)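 BioMAP Diversity Plus panel of 12 human primary cell co-culture systems (3C, 4H, LPS, SAg, BT, BF4T, BE3C, CASM3C, HDF3CGF, KF3CT, MyoF, Mphg). Compounds were added 1 h before stimulation and left for 24 h (MyoF 48 h; BT 72 h for soluble read-outs or 6 d for IgG). Biomarkers were read by ELISA, cytotoxicity by SRB, PBMC viability and proliferation by Alamar Blue. Each well value was divided by the mean of 8 DMSO control wells on the same plate and log10 transformed; duplicate blinded samples were tested at 4 concentrations.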

[2] = compound: OCCCCC(F)(F)C(F)(F)C(F)(F)C(F)(F)F [4:4 Fluorotelomer alcohol]; conditions: in DMSO
Method: as §1

[3] = compound: O=S(=O)(OCC(F)(F)F)C(F)(F)C(F)(F)C(F)(F)C(F)(F)F [2,2,2-Trifluoroethyl perfluorobutanesulfonate]; conditions: in DMSO
Method: as §1

[4] = compound: C=C(C)C(=O)OCC(F)(F)C(F)(F)C(F)(F)F [2,2,3,3,4,4,4-Heptafluorobutyl methacrylate]; conditions: in DMSO
Method: as §1

[5] = compound: O=C(Cl)C(F)(F)C(F)(F)C(F)(F)C(=O)Cl [Hexafluoroglutaryl chloride]; conditions: in DMSO
Method: as §1

[6] = compound: C=CC(=O)OCCC(F)(F)C(F)(F)C(F)(F)C(F)(F)C(F)(F)C(F)(F)C(F)(F)C(F)(F)F [8:2 Fluorotelomer acrylate]; conditions: in DMSO
Method: as §1

[7] = compound: O=P(O)(O)CCC(F)(F)C(F)(F)C(F)(F)C(F)(F)C(F)(F)C(F)(F)F [2-(Perfluorohexyl)ethylphosphonic acid]; conditions: in DMSO
Method: as §1

| Test System | level (log10) [1] | level (log10) ([2]; 6700 nM) | level (log10) ([2]; 20000 nM) | level (log10) ([2]; 60000 nM) | level (log10) ([3]; 6700 nM) | level (log10) ([3]; 20000 nM) | level (log10) ([3]; 60000 nM) | level (log10) ([4]; 6700 nM) | level (log10) ([4]; 20000 nM) | level (log10) ([4]; 60000 nM) | level (log10) ([5]; 6700 nM) | level (log10) ([5]; 20000 nM) | level (log10) ([5]; 60000 nM) | level (log10) ([6]; 6700 nM) | level (log10) ([6]; 20000 nM) | level (log10) ([6]; 60000 nM) | level (log10) ([7]; 6700 nM) | level (log10) ([7]; 20000 nM) | level (log10) ([7]; 60000 nM) |
| --- | --- | --- | --- | --- | --- | --- | --- | --- | --- | --- | --- | --- | --- | --- | --- | --- | --- | --- | --- |
| BE3C:CXCL11/I-TAC | -0.012 ± 0.0014 | -0.013 ± 0.0028 | -0.0125 ± 0.00071 | -0.0025 ± 0.015 | 0.017 ± 0.0057 | -0.003 ± 0.0085 | 0.006 ± 0.0085 | 0.0215 ± 0.03 | 0.0225 ± 0.005 | 0.017 ± 0.0085 | 0.0285 ± 0.015 | 0.0105 ± 0.046 | 0.021 ± 0.031 | -0.019 ± 0.011 | -0.0115 ± 0.013 | 0.003 ± 0.011 | -0.0205 ± 0.0078 | -0.0235 ± 0.0064 | -0.0415 ± 0.032 |
| SAg:SRB | -0.0185 ± 0.00071 | 0.0005 ± 0.0021 | 0.0085 ± 0.015 | -0.0055 ± 0.0035 | 0.0025 ± 0.013 | -0.0045 ± 0.0021 | -0.005 | -0.0005 ± 0.0078 | 0.0035 ± 0.0035 | 0.002 ± 0.0099 | -0.0025 ± 0.0035 | -0.0035 ± 0.0035 | 0.0045 ± 0.0021 | -0.004 ± 0.0028 | -0.0055 ± 0.011 | 0.001 ± 0.014 | -0.008 ± 0.011 | 0.0025 ± 0.013 | -0.0355 ± 0.035 |
| BF4T:PAI-I | -0.0135 ± 0.0035 | 0.0065 ± 0.0078 | 0.011 ± 0.0099 | 0.0125 ± 0.012 | -0.0035 ± 0.0035 | -0.0075 ± 0.00071 | -0.0025 ± 0.0021 | -0.0035 ± 0.00071 | 0.0015 ± 0.0064 | 0.007 | -0.01 ± 0.014 | -0.002 ± 0.0042 | -0.0005 ± 0.005 | -0.0035 ± 0.0064 | -0.0055 ± 0.0035 | 0.007 ± 0.017 | -0.0075 ± 0.0092 | -0.0115 ± 0.0035 | -0.016 ± 0.038 |
| BF4T:tPA | -0.103 ± 0.029 | -0.0095 ± 0.011 | -0.01 | 0.0205 ± 0.036 | 0.0025 ± 0.0021 | 0.011 ± 0.023 | 0.015 ± 0.0028 | -0.0165 ± 0.032 | 0.0025 ± 0.00071 | 0.012 ± 0.023 | 0.0095 ± 0.0078 | -0.019 ± 0.0099 | -0.0095 ± 0.019 | -0.046 ± 0.013 | -0.0635 ± 0.023 | -0.0465 ± 0.012 | -0.059 ± 0.0014 | -0.067 ± 0.0057 | -0.0615 ± 0.064 |
| 3C:CXCL8/IL-8 | -0.003 ± 0.034 | -0.029 ± 0.0085 | -0.031 ± 0.0057 | 0.0005 ± 0.0078 | 0.0105 ± 0.012 | 0.014 ± 0.024 | 0.064 ± 0.071 | 0.0395 ± 0.042 | 0.039 ± 0.0014 | 0.051 ± 0.04 | -0.007 ± 0.023 | -0.0075 ± 0.029 | 0.047 ± 0.048 | 0.009 ± 0.0057 | 0.012 ± 0.035 | 0.0555 ± 0.049 | -0.0115 ± 0.05 | -0.0035 ± 0.0021 | 0.0545 ± 0.03 |
| LPS:CD141/Thrombomodulin | -0.0605 ± 0.14 | 0.0135 ± 0.032 | 0.0215 ± 0.0078 | 0.007 ± 0.0085 | -0.0075 ± 0.03 | 0.0145 ± 0.04 | 0.067 ± 0.025 | 0.001 ± 0.05 | -0.0015 ± 0.005 | -0.0185 ± 0.019 | -0.0035 ± 0.066 | -0.017 ± 0.028 | -0.017 ± 0.021 | -0.044 ± 0.04 | -0.085 ± 0.016 | -0.0925 ± 0.03 | -0.004 ± 0.11 | -0.0055 ± 0.11 | 0.0315 ± 0.032 |
| BE3C:IL-1alpha | -0.014 ± 0.0014 | 0.0255 ± 0.00071 | 0.0095 ± 0.011 | 0.0155 ± 0.021 | 0.0045 ± 0.011 | 0.0025 ± 0.0078 | 0.015 ± 0.013 | -0.003 ± 0.017 | -0.019 ± 0.0057 | -0.007 ± 0.011 | -0.014 ± 0.025 | -0.017 ± 0.0042 | 0.0025 ± 0.005 | -0.007 ± 0.021 | -0.015 ± 0.0042 | 0.0165 ± 0.029 | -0.01 ± 0.0014 | -0.0245 ± 0.005 | -0.007 ± 0.023 |
